Assay type in all cases: cell-based
The target of experiment [1] is T1, Glucocorticoid receptor (Rattus norvegicus) (UniProt P06536).
T1 sequence (whole entry): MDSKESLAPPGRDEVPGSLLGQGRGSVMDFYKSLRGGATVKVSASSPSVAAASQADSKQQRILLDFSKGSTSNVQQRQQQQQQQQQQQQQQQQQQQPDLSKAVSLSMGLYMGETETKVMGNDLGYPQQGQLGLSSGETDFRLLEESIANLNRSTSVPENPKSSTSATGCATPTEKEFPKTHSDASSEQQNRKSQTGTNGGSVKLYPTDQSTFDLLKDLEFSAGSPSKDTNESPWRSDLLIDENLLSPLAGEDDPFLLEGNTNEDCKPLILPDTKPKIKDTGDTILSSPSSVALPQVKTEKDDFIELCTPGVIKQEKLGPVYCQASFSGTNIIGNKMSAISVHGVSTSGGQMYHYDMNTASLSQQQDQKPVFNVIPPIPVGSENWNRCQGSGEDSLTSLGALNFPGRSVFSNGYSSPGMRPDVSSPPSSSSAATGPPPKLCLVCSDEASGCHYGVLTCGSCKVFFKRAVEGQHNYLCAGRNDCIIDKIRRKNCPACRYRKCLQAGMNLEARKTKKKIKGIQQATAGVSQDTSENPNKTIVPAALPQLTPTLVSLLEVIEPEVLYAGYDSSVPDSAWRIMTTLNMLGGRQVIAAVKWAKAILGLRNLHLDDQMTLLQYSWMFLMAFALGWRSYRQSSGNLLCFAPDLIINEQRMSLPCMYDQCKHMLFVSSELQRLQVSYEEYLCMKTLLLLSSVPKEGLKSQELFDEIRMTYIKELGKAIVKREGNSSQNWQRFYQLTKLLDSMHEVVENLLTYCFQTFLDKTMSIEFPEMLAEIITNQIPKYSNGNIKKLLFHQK
Kind of experiment: Binding affinity to enhanced YFP tagged rat glucocorticoid receptor (497-795)-LBD expressed in Saccharomyces cerevisiae FY250 cells by measuring fluorescence changes incubated at 100 uM for 15 hrs by fluorescence spectroscopy.

Experiment [2] has as its target T1, Glucocorticoid receptor (Rattus norvegicus). Briefly: Binding affinity to enhanced YFP tagged rat glucocorticoid receptor (497-795)-LBD expressed in Saccharomyces cerevisiae FY250 cells by measuring increase in fluorescence intensity incubated at 100 uM for 15 hrs by fluorescence microscopy.
For experiment [3] the target is unchanged. Briefly: Binding affinity to enhanced YFP tagged rat glucocorticoid receptor (497-795)-LBD expressed in Saccharomyces cerevisiae FY250 cells by measuring fluorescence changes incubated for 15 hrs by fluorescence spectroscopy.

Active and inactive are the calls of the source. No cut-off for these calls is given here.

In the case of `C[C@H](CCC(=O)Nc1ccccc1)[C@H]1CC[C@H]2[C@@H]3CC[C@@H]4C[C@H](O)CC[C@]4(C)[C@H]3C[C@H](O)[C@]12C`, the outcome in experiment [1] and in experiment [2] was Active.

As for `C[C@]12C=CC(=O)C=C1CC[C@@H]1[C@@H]2[C@@H](O)C[C@@]2(C)[C@H]1CC[C@]2(O)C(=O)CO`, the outcome in experiment [2] was Active. In addition, the Activity result in experiment [3] is “Dose-dependent effect”.

As for `C[C@H](CCC(=O)O)[C@H]1CC[C@H]2[C@@H]3CC[C@@H]4CCCC[C@]4(C)[C@H]3CC[C@]12C`, the outcome in experiment [1] and in experiment [2] was Active.

(Values after ChEMBL document CHEMBL4673197, “Microwave-assisted green synthesis of bile acid derivatives and evaluation of glucocorticoid receptor binding” (RSC Med Chem, 2021).)
